Source: patent US5124332A, “Substituted indoles as central nervous system agents” (Warner-Lambert Company, priority 1991, dated 1992)
Counter-ions that a name gives are not always drawn. Like-named read-outs stand apart in the source and are kept apart here.

What was measured:
[1] = target: T1, [^3 H]-spiroperidol binding (Homo sapiens, UniProt P14416); assay: Inhibition of [^3 H]-spiroperidol binding in a receptor assay
T1 construct: from tissue; own knowledge of the cited 1985 method, which predates the cloning of D2)
Procedure: (§1) The compounds of Formula I are valuable dopaminergic agents. […] Thus, the compounds of Formula I were tested for their ability to inhibit locomotor activity in mice according to the assay described by J. R. McLean, et al, Pharmacology, Biochemistry and Behavior, Volume 8, pages 97-99 (1978); and for their ability to inhibit [^3 H]-spiroperidol binding in a receptor assay described by D. Grigoriadis and P. Seman, Journal of Neurochemistry, Volume 44, pages 1925-1935 (1985). The above test methods are incorporated herein by reference. The data in the table show the dopaminergic activity of representative compounds of Formula I.

[2] = system: locomotor activity in mice; assay: Inhibition of locomotor activity in mice; assay type: in vivo; settings: Mus musculus, read-out: Inhibition of Locomotor Activity in Mice ED50
Procedure: as §1

[3] = [^3 H]spiroperidol, receptor assay, read-out: Inhibition of [^3 H]Spiroperidol Binding IC50

T1 sequence (P14416 whole entry): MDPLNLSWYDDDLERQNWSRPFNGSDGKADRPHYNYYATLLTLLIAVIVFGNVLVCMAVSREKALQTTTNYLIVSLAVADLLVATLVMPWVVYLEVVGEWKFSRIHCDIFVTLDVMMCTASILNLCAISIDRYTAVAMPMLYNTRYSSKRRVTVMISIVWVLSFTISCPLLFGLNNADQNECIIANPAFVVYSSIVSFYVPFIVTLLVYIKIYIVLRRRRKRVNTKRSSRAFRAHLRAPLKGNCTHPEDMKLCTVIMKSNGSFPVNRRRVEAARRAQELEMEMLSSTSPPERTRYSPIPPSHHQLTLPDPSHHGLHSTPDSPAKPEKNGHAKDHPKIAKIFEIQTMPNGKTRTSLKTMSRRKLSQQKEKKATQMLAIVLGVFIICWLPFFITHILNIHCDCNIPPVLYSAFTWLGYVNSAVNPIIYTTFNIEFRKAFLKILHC

| SMILES | IC50 [1, 3] [nM] | ED50 ([2]; mice, IP) [mg/kg] | IC50 [1] [nM] | ED50 ([2]; ip) [mg/kg] |
| --- | --- | --- | --- | --- |
| c1ccc(N2CCN(CC[C@H]3CC[C@H](c4c[nH]c5ccccc54)CC3)CC2)nc1 [Example 1, trans 3-[4-[2-[4-(2-pyridinyl)-1-piperazinyl]ethyl]cyclohexyl]-1H-indole] | 69.8 | 1.4 |  |  |
| c1ccc(N2CCN(CC[C@H]3CC[C@@H](c4c[nH]c5ccccc54)CC3)CC2)nc1 [Example 2, Cis 3-[4-[2-[4-(2-pyridinyl)-1-piperazinyl]ethyl]cyclohexyl]-1H-indole] | 193 | 4.7 |  |  |
| c1cnc(N2CCN(CC[C@H]3CC[C@H](c4c[nH]c5ccccc54)CC3)CC2)nc1 [Example 3, Trans 3-[4-[2-[4-(2-pyrimidinyl)-1-piperazinyl]ethyl]cyclohexyl]-1H-indole,hydrochloride] | 224 | 3.3 |  |  |
| c1cnc(N2CCN(CC[C@H]3CC[C@@H](c4c[nH]c5ccccc54)CC3)CC2)nc1 [Example 4, Cis 3-[4-[2-[4-(2-pyrimidinyl)-1-piperazinyl]ethyl]cyclohexyl]-1H-indole, hydrochloride] | 349 | 8.6 |  |  |
| C1=C(c2ccccc2)CCN(CC[C@H]2CC[C@H](c3c[nH]c4ccccc43)CC2)C1 [Example 5, Trans 3-[4-[2-(3,6-dihydro-4-phenyl-1(2H)-pyridinyl)ethyl]cyclohexyl]-1H-indole] |  |  | 12.1 | 9 |
| C1=C(c2ccccc2)CCN(CC[C@H]2CC[C@@H](c3c[nH]c4ccccc43)CC2)C1 [Example 6, Cis 3-[4-[2-(3,6-dihydro-4-phenyl-1(2H)-pyridinyl)ethyl]cyclohexyl]-1H-indole] |  |  | 39.3 | 16.6 |
| C1=C(c2cccs2)CCN(CC[C@H]2CC[C@H](c3c[nH]c4ccccc43)CC2)C1 [Example 7, Trans 3-[4-[2-(3,6-dihydro-4-(2-thienyl)-1(2H)-pyridinyl)ethyl]cyclohexyl]-1H-indole] | 878 |  |  | 11.7 |
| C1=C(c2c[nH]c3ccccc23)CCC(CCN2CCN(c3ccccn3)CC2)C1 (stereo not shown) [Example 16] | 270 | 6.25 |  |  |
